Source: paper PMC12442009, “Self-Assembling Cyclic Peptide Nanotubes for the Delivery of Doxorubicin into Drug-Resistant Cancer Cells” (ACS Applied Materials & Interfaces, 2025)
Where two headings read alike, the source gives them in different places. Square brackets hold non-standard residues; d marks the D form. Peptide text beside a SMILES is read from it. * marks the point of attachment. X1 = COc1cccc2c1C(=O)c1c(O)c3c(c(O)c1C2=O)C[C@@](O)(C(CO)=NNC(=O)CCCCCN1C(=O)CC(*)C1=O)C[C@@H]3O[C@H]1C[C@H](N)[C@H](O)[C@H](C)O1; Pra = C#CC[C@H](N)C(=O)O

Assays:
[1] = test system: NCI/ADR-RES (doxorubicin-resistant ovarian cancer cell line); test: MTT cell growth inhibition, NCI/ADR-RES; assay type: cell-based; settings: for E max (% inhibition): inhibition at highest concentration tested (100 μM)
Experimental: (§1) The cell growth inhibition of each compound was evaluated using the MTT (3-[4,5-dimethylthiazol-2-yl]-2,5-diphenyltetrazolium bromide) assay. MCF-7 and MRC-5 cells were grown on a Minimum Essential Medium Eagle, while NCI-H460 and NCI/ADR-RES cells were grown on RPMI 1640 culture medium. All culture mediums were supplemented with 10% FBS (fetal bovine serum) and 1% penicillin-streptomycin-glutamine mix. […] MCF-7 (100,000 cells/mL), NCI-H460 (150,000 cells/mL), NCI/ADR-RES (150,000 cells/mL), or MRC-5 (100,000 cells/mL) cells were seeded the day before in sterile 96-well plates (100 μL/well). Then, cells were incubated with each concentration of the compound (100 μL/well) for the specified time for each cell line. The compounds were previously dissolved in DMSO and diluted at the time of the experiment with complete medium to the concentration to be tested. The DMSO content of each well was maintained at less than 1%. All concentrations were carried out with triplicate points, and controls with DMSO at the same proportion in which the compounds were dissolved were included in all experiments. After the incubation time, the samples were removed, and 100 μL of complete medium with 0.5 mg/mL MTT was added to each well. Cells were incubated for 4 h, and the medium was removed. The resulting formazan crystals were dissolved in DMSO (100 μL/well). The absorbance of each well at 595 nm was acquired with a Tecan Infinite F200Pro plate reader. A blank subtraction was performed (cells treated with Triton X-100), and the data were normalized to the value of the untreated cells (100% viability). Data were analyzed with GraphPad Prism software.

[2] = test system: MCF-7 (breast cancer cell line); test: MTT cell growth inhibition, MCF-7; assay type: cell-based; settings: for E max (% inhibition): inhibition at highest concentration tested (100 μM), triplicate points
Experimental: as §1

[3] = test system: NCI-H460 (lung cancer cell line); settings: for E max (% inhibition): inhibition at highest concentration tested (100 μM)
Experimental: as §1

[4] = test system: NCI/ADR-RES cells; test: Confocal microscopy internalization and colocalization; settings: 50 μM, 2 h
[5] = Hydrazone stability / DOX release followed by mass spectrometry; assay type: physicochemical; settings: 200 μM; for stability (DOX release) at pH 5.0: pH 5.0 (10 mM citrate buffer), followed over 72 h; for stability (DOX release) at physiological pH: pH 7.0 (H2O), 72 h
[6] = test system: NCI/ADR-RES cells; test: Cell uptake by RP-HPLC of cell lysates; settings: 100 μM, 120 min, 37 °C minus 4 °C, ACN/H2O extraction, RP-HPLC 460 nm, normalized vs initial concentration incubated
Experimental: NCI/ADR-RES cells (10^6) were seeded in T-25 Flasks. After 24 h, the medium was removed, and a solution of DOX or CP1T NBD -DOX (100 μM) in culture medium (7 mL) was added. The cells were incubated for 120 min at 37 °C under a CO2 atmosphere (5%). Then, the medium was removed, and the cells were washed with cold PBS (3 × 3 mL). After washing, a mixture of ACN/H2O (1.5 mL, 80:20) was added to the flask and incubated overnight at 4 °C. Solvent samples were transferred to 1.5 mL Eppendorf and centrifuged at 12,000 g for 15 min at 4 °C, and the supernatant was evaporated to dryness. Analogous experiments were carried out by incubating the compounds at 4 °C for 120 min to determine the nonspecific binding to the cell membrane, since the uptake is decreased at this temperature. To evaluate the efficiency of solvent extraction, 10^6 cells were seeded in a T-25 Flask. […] The resulting lysates were analyzed by RP-HPLC by dissolving the Eppendorf samples in an aqueous solution of TFA (1%, 100 μL). All of the intracellular compound quantities were calculated from the detected area and divided by the efficiency of solvent extraction. Cell uptake was calculated by subtracting the intracellular compound quantity from the assay carried out at 37 °C from the quantity obtained at 4 °C and normalized to 100% vs the initial concentration incubated.

[7] = test system: MRC-5 (human embryonic lung cell line); test: MTT cytotoxicity in noncancerous fibroblasts MRC-5; assay type: cell-based; settings: MRC-5 fibroblasts, 7 days incubation
[8] = test system: NCI-H460 (lung cancer cell line); test: cells; settings: Homo sapiens, NCI-H460, 48 h
Experimental: as §1

[9] = NCI/ADR-RES, 48 h incubation, MTT, calculated only if E max > 50%, read-out: IC50
[10] = NCI/ADR-RES, 48 h incubation, MTT
[11] = MCF-7, 96 h incubation, MTT, 50% growth inhibition, calculated only if E max > 50%, read-out: IC50
[12] = NCI/ADR-RES, 72 h incubation, MTT, calculated only if E max > 50%, read-out: IC50
[13] = NCI/ADR-RES, 72 h incubation, MTT
[14] = NCI-H460, 48 h incubation, MTT, calculated only if E max > 50%

| SMILES | IC50 [1, 9] [µM] | E max (% inhibition) [1, 10] [% inhibition] | IC50 [2, 11] [µM] | E max (% inhibition) ([2]; MCF-7, 96 h incubation, MTT) | E max (% inhibition) ([3]; NCI-H460, 48 h incubation, MTT) | IC50 [1, 12] [µM] | cell internalization / localization by confocal microscopy [4] | E max (% inhibition) [1, 13] [% inhibition] | IC50 [3, 14] [µM] | other results |
| --- | --- | --- | --- | --- | --- | --- | --- | --- | --- | --- |
| CCCCCCCCCCn1cc(C[C@@H]2NC(=O)[C@@H](Cc3c[nH]c4ccccc34)NC(=O)[C@H](CO)NC(=O)[C@@H](CCCCN)NC(=O)[C@H](CO)NC(=O)[C@@H](CS)NC(=O)[C@H](CCC(N)=O)NC(=O)[C@@H](CCCCN)NC2=O)nn1 [CP1T10] | 68.9 ± 2.1 | 70 ± 2 | 78.8 ± 0.1 | 59 ± 1 | 28 ± 1 | – | – | – | – | – |
| C#CC[C@@H]1NC(=O)[C@@H](Cc2c[nH]c3ccccc23)NC(=O)[C@H](CO)NC(=O)[C@@H](CCCCN)NC(=O)[C@H](CO)NC(=O)[C@@H](CS)NC(=O)[C@H](CCC(N)=O)NC(=O)[C@@H](CCCCN)NC1=O [CP1] (cyclo([Pra][dK]Q[dC]S[dK]S[dW])) | – | 90 ± 1 | – | – | – | – | – | – | – | IC50 ([1]; 48 h): 55.8 ± 0.7 µM; IC50 ([2]; 96 h): 17.7 ± 0.3 µM; IC50 ([3]; 48 h): 37.9 ± 0.4 µM |
| C#CC[C@@H]1NC(=O)[C@@H](Cc2c[nH]c3ccccc23)NC(=O)[C@H](CO)NC(=O)[C@@H](CS)NC(=O)[C@H](CO)NC(=O)[C@@H](CCCNC(=N)N)NC(=O)[C@H](CCC(N)=O)NC(=O)[C@@H](CCCCN)NC1=O [CP2] (cyclo([Pra][dK]Q[dR]S[dC]S[dW])) | – | – | – | 48 ± 1 | 8 ± 1 | – | – | – | – | – |
| CCCCCCCCCCCCCCn1cc(C[C@@H]2NC(=O)[C@@H](Cc3c[nH]c4ccccc34)NC(=O)[C@H](CO)NC(=O)[C@@H](CCCCN)NC(=O)[C@H](CO)NC(=O)[C@@H](CSC3CC(=O)N(CCCCCC(=O)NN=C(CO)[C@]4(O)Cc5c(O)c6c(c(O)c5[C@@H](O[C@H]5C[C@H](N)[C@H](O)[C@H](C)O5)C4)C(=O)c4c(OC)cccc4C6=O)C3=O)NC(=O)[C@H](CCC(N)=O)NC(=O)[C@@H](CCCCN)NC2=O)nn1 (stereo partly drawn) [CP1T14-DOX] | – | 44 ± 4 | – | – | – | 5.7 ± 2.7 | – | – | – | – |
| C#CC[C@@H]1NC(=O)[C@@H](Cc2c[nH]c3ccccc23)NC(=O)[C@H](CO)NC(=O)[C@@H](CCCCN)NC(=O)[C@H](CO)NC(=O)[C@@H](CSC2CC(=O)N(CCCCCC(=O)NN=C(CO)[C@]3(O)Cc4c(O)c5c(c(O)c4[C@@H](O[C@H]4C[C@H](N)[C@H](O)[C@H](C)O4)C3)C(=O)c3c(OC)cccc3C5=O)C2=O)NC(=O)[C@H](CCC(N)=O)NC(=O)[C@@H](CCCCN)NC1=O (stereo partly drawn) [CP1-DOX] (cyclo(Q[dC](X1)S[dK]S[dW][Pra][dK])) | – | – | 3.5 ± 0.3 | 81 ± 1 | 75 ± 1 | – | mainly trapped in small compartments of the cytoplasm | 22 ± 4 | 2.8 ± 0.1 | stability (DOX release) at pH 5.0 [5]: drug release was observed after 72 h under these conditions, although part of the cyclic peptide conjugate survived after this time; stability (DOX release) at physiological pH [5]: much more stable at physiological pH, with a small release of the drug after 72 h |
| COc1cccc2c1C(=O)c1c(O)c3c(c(O)c1C2=O)C[C@@](O)(C(=O)CO)C[C@@H]3O[C@H]1C[C@H](N)[C@H](O)[C@H](C)O1 [DOX, doxorubicin] | – | 36 ± 4 | – | 86 ± 1 | 56 ± 1 | – | no significant internalization | – | – | cell uptake [6]: 21.56%; cytotoxicity in MRC-5 [7]: significant cytotoxicity; E max (% inhibition) ([1]; NCI/ADR-RES, 48 h incubation, MTT, listed as doxorubicin): 36 % inhibition; IC50 [8]: 9.3 ± 1.7 µM; IC50 ([2]; Homo sapiens, MCF7, MCF-7, 96 h incubation, MTT, 50% growth inhibition, calculated only if E max > 50%, read-out: IC50): 0.82 ± 0.1 µM |
| COc1cccc2c1C(=O)c1c(O)c3c(c(O)c1C2=O)C[C@@](O)(C(CO)=NNC(=O)CCCCCN1C(=O)CC(SC[C@H]2NC(=O)[C@H](CCC(N)=O)NC(=O)[C@@H](CCCCN)NC(=O)[C@H](Cc4cn(CCCCC(=O)NCCNc5ccc([N+](=O)[O-])c6nonc56)nn4)NC(=O)[C@@H](Cc4c[nH]c5ccccc45)NC(=O)[C@H](CO)NC(=O)[C@@H](CCCCN)NC(=O)[C@H](CO)NC2=O)C1=O)C[C@@H]3O[C@H]1C[C@H](N)[C@H](O)[C@H](C)O1 (stereo partly drawn) [CP1T NBD -DOX] | – | 30 ± 3 | – | – | – | 3.7 ± 0.2 | – | – | – | cell uptake [6]: 56.34% |
| CCCCCCCCCCn1cc(C[C@@H]2NC(=O)[C@@H](Cc3c[nH]c4ccccc34)NC(=O)[C@H](CO)NC(=O)[C@@H](CSC3CC(=O)N(CCCCCC(=O)NN=C(CO)[C@]4(O)Cc5c(O)c6c(c(O)c5[C@@H](O[C@H]5C[C@H](N)[C@H](O)[C@H](C)O5)C4)C(=O)c4c(OC)cccc4C6=O)C3=O)NC(=O)[C@H](CO)NC(=O)[C@@H](CCCNC(=N)N)NC(=O)[C@H](CCC(N)=O)NC(=O)[C@@H](CCCCN)NC2=O)nn1 (stereo partly drawn) [CP2T10-DOX] | 33.4 ± 0.3 | – | 2.6 ± 0.3 | 88 ± 1 | 93 ± 1 | 21.8 ± 6.4 | cells with a colored nucleus | 64 ± 7 | 1.7 ± 0.1 | – |
| CCCCCCCCCCn1cc(C[C@@H]2NC(=O)[C@@H](Cc3c[nH]c4ccccc34)NC(=O)[C@H](CO)NC(=O)[C@@H](CCCCN)NC(=O)[C@H](CO)NC(=O)[C@@H](CSC3CC(=O)N(CCCCCC(=O)NN=C(CO)[C@]4(O)Cc5c(O)c6c(c(O)c5[C@@H](O[C@H]5C[C@H](N)[C@H](O)[C@H](C)O5)C4)C(=O)c4c(OC)cccc4C6=O)C3=O)NC(=O)[C@H](CCC(N)=O)NC(=O)[C@@H](CCCCN)NC2=O)nn1 (stereo partly drawn) [CP1T10-DOX] | 38.4 ± 0.7 | – | 3.4 ± 0.4 | 89 ± 1 | 93 ± 1 | 10.8 ± 1.7 | cells with a colored nucleus | 84 ± 3 | 3.1 ± 0.1 | stability (DOX release) at pH 5.0 [5]: the molecular ion corresponding to the drug is still very minor after this time; stability (DOX release) at physiological pH [5]: much more stable at physiological pH, with a small release of the drug after 72 h |
| CCCCCCCCCCn1cc(C[C@@H]2NC(=O)[C@@H](Cc3c[nH]c4ccccc34)NC(=O)[C@H](CO)NC(=O)[C@@H](CS)NC(=O)[C@H](CO)NC(=O)[C@@H](CCCNC(=N)N)NC(=O)[C@H](CCC(N)=O)NC(=O)[C@@H](CCCCN)NC2=O)nn1 [CP2T10] | – | 75 ± 2 | – | 63 ± 1 | 80 ± 2 | – | – | – | – | IC50 ([1]; 48 h): 68.2 ± 4.6 µM; IC50 ([2]; 96 h): 50.2 ± 0.6 µM |
| CCCCCCCCCCCCCCn1cc(C[C@@H]2NC(=O)[C@@H](Cc3c[nH]c4ccccc34)NC(=O)[C@H](CO)NC(=O)[C@@H](CSC3CC(=O)N(CCCCCC(=O)NN=C(CO)[C@]4(O)Cc5c(O)c6c(c(O)c5[C@@H](O[C@H]5C[C@H](N)[C@H](O)[C@H](C)O5)C4)C(=O)c4c(OC)cccc4C6=O)C3=O)NC(=O)[C@H](CO)NC(=O)[C@@H](CCCNC(=N)N)NC(=O)[C@H](CCC(N)=O)NC(=O)[C@@H](CCCCN)NC2=O)nn1 (stereo partly drawn) [CP2T14-DOX] | – | 39 ± 9 | – | – | – | 8.2 ± 0.8 | – | 51 ± 4 | – | E max (% inhibition) ([1]; NCI/ADR-RES, 72 h incubation, MTT, listed as CP2T 14 -DOX): good activity |
| C#CC[C@@H]1NC(=O)[C@@H](Cc2c[nH]c3ccccc23)NC(=O)[C@H](CO)NC(=O)[C@@H](CSC2CC(=O)N(CCCCCC(=O)NN=C(CO)[C@]3(O)Cc4c(O)c5c(c(O)c4[C@@H](O[C@H]4C[C@H](N)[C@H](O)[C@H](C)O4)C3)C(=O)c3c(OC)cccc3C5=O)C2=O)NC(=O)[C@H](CO)NC(=O)[C@@H](CCCNC(=N)N)NC(=O)[C@H](CCC(N)=O)NC(=O)[C@@H](CCCCN)NC1=O (stereo partly drawn) [CP2-DOX] (cyclo(Q[dR]S[dC](X1)S[dW][Pra][dK])) | – | – | 1.8 ± 0.2 | 80 ± 1 | 92 ± 1 | – | minimum cell internalization | 13 ± 1 | 2.9 ± 0.3 | – |
| N.N.[Cl][Pt][Cl] [Cisplatin, cisplatin, reference compound] | 11.5 ± 0.6 | 90 ± 1 | 7.8 ± 0.6 | 78 ± 1 | 53 ± 1 | – | – | – | 5.1 ± 0.6 | – |
